Measured values taken from patent US11661398B2, “Cellular transport system for transferring a sulfonic acid construct carrying a cargo into the cytoplasm of a cell” (Scientist of Fortune, S.A., priority 2017, dated 2023).
Entries after “also recorded” stand apart in the source; their conditions may differ.

Experiments:
[1] = test system: BW25113 ΔleuB; assay: Intracellular release of leucine from sulfobutanoyl-L-leucine, growth on plates; assay type: cell-based, E. coli; conditions: 2 mM compound, 0.5 mM taurine
Description: (§1) For the experiments relating to the sulfonate based synthetic transport system, unless stated otherwise, growth experiments in selective medium were carried out in sulfur free MS minimal medium (4 mM citric acid, 1 mM MgCl2, 20 mM NH4Cl, 50 mM KH2PO4 and 1×NTA mix (10 μM nitrilotriacetic acid, 3 μM CaCl2, 3 μM FeCl3, 1 μM MnCl2, 0.3 μM ZnCl2, 0.3 μM H3B3, 0.3 μM CrC3, 0.3 μM COCl2, 0.3 μM CuCl2, 0.3 μM Ni2C, 0.3 μM Na2MoO4, 0.3 μM Na2SeO3)) supplemented with 0.5% glucose. MgSO4 (1 mM), MgCl2 (1 mM), L-leucine (0.4 mM), IPTG (0.5 mM), aTc (100 ng mL-1), nicotinic acid (various concentrations), 3-picolylamine (various concentrations) and sulfonates (various concentrations) as indicated in the text. […] Synthesis schemes for sulfobutanoyl-p-nitroanilide and other sulfonates are given below.
It was then tested if sulfobutanoyl-L-leucine can also be hydrolyzed intracellularly by GGT*. Strains BW25113 ΔleuB or BW25113 ΔleuB ΔssuD were transformed either with the empty vector pACT3 or the expression plasmids pACT3/EcGGT_ΔN24_D433N and pACT3/PnGGT_ΔN24_D405N. […] Taurine is taken up exclusively via TauABC and solely desulfonated by TauD. Addition of an excess of taurine should therefore not lead to competition with sulfobutanoyl-L-leucine for the SsuABC transporter and prevent TauD from using sulfobutanoyl-L-leucine as substrate, ensuring that the majority of sulfobutanoyl-L-leucine is hydroluzed by GGT*.

[2] = test system: TK082[pSsuABC]; assay: Growth of leucine auxotrophic strain in liquid medium; assay type: cell-based, E. coli; conditions: liquid MS minimal medium, 0.25 mM compound, pACT3 versus pPnGGT*
[3] = biological target: T1, PnGGT* (Pseudomonas nitroreducens, UniProt E0D5C2, D405N); assay: Sulfobutanoyl-L-leucine hydrolysis kinetics coupled to branched-chain amino acid kit; assay type: biochemical; conditions: 50 mM Tris/HCl (pH 7.0)
T1 sequence (E0D5C2 25-556 D405N limits assumed): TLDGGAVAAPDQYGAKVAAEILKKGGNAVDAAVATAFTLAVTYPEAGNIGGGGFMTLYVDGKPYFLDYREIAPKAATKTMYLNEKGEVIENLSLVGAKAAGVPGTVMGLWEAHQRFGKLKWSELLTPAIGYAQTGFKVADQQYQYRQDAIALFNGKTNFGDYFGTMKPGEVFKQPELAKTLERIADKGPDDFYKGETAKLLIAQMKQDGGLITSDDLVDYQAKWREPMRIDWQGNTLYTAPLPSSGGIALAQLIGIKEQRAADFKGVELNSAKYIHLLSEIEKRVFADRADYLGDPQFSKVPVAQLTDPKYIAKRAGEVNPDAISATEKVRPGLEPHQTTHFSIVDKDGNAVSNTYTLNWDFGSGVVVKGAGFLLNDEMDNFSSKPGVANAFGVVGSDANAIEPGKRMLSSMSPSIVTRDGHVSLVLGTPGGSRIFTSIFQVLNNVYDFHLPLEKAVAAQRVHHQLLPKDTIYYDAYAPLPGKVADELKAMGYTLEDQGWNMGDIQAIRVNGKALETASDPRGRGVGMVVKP
Description: (§2) FIG. 32. […] Due to the unknown composition of the kit, absolute quantification of leucine was not possible and the results relating to reaction rates are plotted as changes in absorbance over time. […] (b) Kinetics of PnGGT* P505T were determined with the same substrate concentrations and buffer as for PnGGT*. […] Fitting of the kinetic data was performed with SigmaPlot v.12.2. Dots represent the average of three independent measurements with standard deviations shown as error bars.
(§3) For that, 50 μL of the BCAA reaction mix containing 46 μL BCAA assay buffer, 2 μL BCAA enzyme mix and 2 μL WST substrate mix were pre-incubated with 35 μL BCAA assay buffer and 5 μL purified PnGGT* (final concentration approximately 0.05 mg mL-1) at 37° C. […] The reaction rate of PnGGT* variants was determined as the specific difference in absorption over time (ΔA (450 nm) per minute per mg of purified protein).

[4] = test system: PnGGT* D385Y; assay: as above; assay type: biochemical, Pseudomonas nitroreducens; conditions: 50 mM Tris/HCl (pH 7.0), 10-1000 μM substrate
Description: as §2, §3

[5] = test system: PnGGT* P505T; assay: as above; assay type: biochemical, Pseudomonas nitroreducens; conditions: 50 mM Tris/HCl (pH 7.0)
Description: as §2, §3

[6] = test system: BW25113 ΔleuB (TK080); assay: Growth on different sulfur sources; assay type: cell-based, E. coli; conditions: 1 mM sulfur source, minimal medium, 0.5% glucose, 0.4 mM leucine
Description: FIG. 21: Growth of E. coli on sulfonates. Strains TK080 (a; BW25113 ΔleuB) and TK082 (b; BW25113 ΔleuB ΔssuEADCB ΔtauD) were grown in MS minimal medium supplemented with 0.5% glucose, 0.4 mM L-leucine, 1 mM MgCl2 and 1 mM of a sulfur source. TK080 was able to use the majority of the tested sulfur sources with a similar efficiency as sulfate. […] Dots represent the average of three independent measurements with standard deviations shown as error bars.
as §1
The sulfonate transporters SsuABC and TauABC transport a wide variety of sulfonate compounds (Eichhorn et al., 2000) and can thus be exploited for the present synthetic transport system. As such, the uptake and utilization of sulfobutanoyl-L-leucine was assessed. The leucine auxotrophic strain BW25113 ΔleuB was tested for growth in minimal medium supplemented with 0.5% glucose, 0.4 mM leucine, 0.4 mM isoleucine and 1 mM of a sulfur-containing compound as the sole sulfur source.

[7] = biological target: T2, PnGGT ΔN24 (Pseudomonas nitroreducens, UniProt E0D5C2); assay: Colorimetric GGT assay in whole cell lysates; assay type: biochemical; conditions: whole cell lysate, 4 mM substrate, 50 mM Tris-HCl (pH 9.0), 410 nm
Source text: (§4) To test for the desired activity a colorimetric enzyme assay was chosen and the substrate sulfobutanoyl-p-nitroanilide was synthesized for this purpose. Hydrolysis of this colorless substrate by a GGT variant into sulfobutanoic acid and the yellow dye 4-nitroaniline can be quantified photometrically at 410 nm. For that, cytoplasmic GGT variants containing an N-terminal 6×His-tag were first expressed from E. coli (EcGGT ΔN24) and Pseudomonas nitroreducens (PnGGT ΔN24), as well as EcGGT ΔN24 D433N and the corresponding mutant variant PnGGT ΔN24 D405N. Position D405 of PnGGT was identified to fulfill the same function as position D433 of EcGGT by sequence alignment and homology modeling between EcGGT and PnGGT. Then the ability of whole cell lysates containing the respective enzymes was tested to hydrolyze L-glutamic acid γ-(3-carboxy-4-nitroanilide) or sulfobutanoyl-p-nitroanilide.

[8] = biological target: T2, PnGGT ΔN24; assay: Kinetic measurements with purified PnGGT ΔN24; assay type: biochemical; conditions: purified enzyme, 50 mM Tris-HCl (pH 9.0)
Description: (§5) For the experiments relating to the sulfonate based synthetic transport system, purification of PnGGT ΔN24 and PnGGT ΔN24 D405N containing an N-terminal 6×His-tag was performed according to previous reports (Van Dyke et al., 1992) using Ni-NTA Superflow (Qiagen, Hilden, Germany). For kinetic studies, PnGGT variants were purified with the aid of the 6×His-tag located at the N-terminal end of the large subunit following the same procedure. To exchange the buffer, purified proteins were dialyzed against 50 mM Tris/HCl (pH 7.0).
(§6) To determine the kinetic parameters of PnGGT ΔN24 and PnGGT ΔN24 D405N the purified enzymes were preincubated in 50 mM Tris-HCl (pH 9.0). To start the reaction, varying concentrations of the substrates L-glutamic acid γ-(3-carboxy-4-nitroanilide) or sulfobutanoyl-p-nitroanilide were added to the mixtures. The results were evaluated using GraphPad Prism (GraphPad Software, La Jolla, Calif., USA).

[9] = biological target: T3, EcGGT ΔN24 D433N (Escherichia coli, UniProt P18956, D433N); assay: Colorimetric GGT assay in whole cell lysates; assay type: biochemical, E. coli; conditions: whole cell lysate, 4 mM substrate, 50 mM Tris-HCl (pH 9.0), 410 nm
T3 construct: made in house; host or cells: E. coli (pACT3 plasmid); assayed in whole cell lysate
Source text: as §4

[10] = biological target: T4, EcGGT ΔN24 (Escherichia coli, UniProt P18956); assay: Colorimetric GGT assay in whole cell lysates; assay type: biochemical, E. coli; conditions: whole cell lysate, 4 mM substrate, 50 mM Tris-HCl (pH 9.0), 410 nm
T4 construct: made in house; host or cells: E. coli (pACT3 plasmid, IPTG induction)
Source text: as §4

[11] = biological target: T5, PnGGT ΔN24 D405N (Pseudomonas nitroreducens, UniProt E0D5C2, D405N); assay: Colorimetric GGT assay in whole cell lysates / cell free extracts; assay type: biochemical; conditions: cell free extracts of strain TK018, 2 mM substrate (FIG. 22a)
T5 sequence (E0D5C2 with tags, fused parts or gaps D405N): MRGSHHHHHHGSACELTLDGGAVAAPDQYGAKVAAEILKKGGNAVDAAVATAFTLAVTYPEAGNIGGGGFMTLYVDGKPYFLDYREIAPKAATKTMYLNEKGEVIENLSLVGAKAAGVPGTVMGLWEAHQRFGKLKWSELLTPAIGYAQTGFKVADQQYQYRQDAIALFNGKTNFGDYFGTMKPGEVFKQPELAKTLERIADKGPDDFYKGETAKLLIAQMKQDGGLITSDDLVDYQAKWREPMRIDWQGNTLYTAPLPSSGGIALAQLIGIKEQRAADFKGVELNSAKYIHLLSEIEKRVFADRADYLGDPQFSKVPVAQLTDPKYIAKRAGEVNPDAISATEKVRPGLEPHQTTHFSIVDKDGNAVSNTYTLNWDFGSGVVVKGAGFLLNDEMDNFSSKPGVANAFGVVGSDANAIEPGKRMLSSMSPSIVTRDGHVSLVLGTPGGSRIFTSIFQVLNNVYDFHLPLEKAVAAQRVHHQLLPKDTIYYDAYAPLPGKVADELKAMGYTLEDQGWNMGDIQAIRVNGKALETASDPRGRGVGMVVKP
Source text: FIG. 22: Identification of GGT* activity and refactoring of the ssuABC operon. […] The release of 4-nitroaniline was quantified by measuring the absorption at 410 nm. (b) Plasmid map of the three-dimensional RBS-library for refactoring the ssuABC operon using 144 RBS variants per gene. RBS library sequences are underlined. Arrows point towards the final RBS sequences observed in plasmid pSsuABC. […] (e) Growth of strain TK088[pSsuABC]transformed with the empty vector pACT3 (black circles) or plasmid pPnGGT* (white circles) in liquid MS minimal medium supplemented with 0.5% glucose, 1 mM MgSO4, 0.4 mM L-leucine, 0.5 mM IPTG, 100 ng ml^−1 aTc and 0.5 mM sulfobutanoyl-L-histidine. Bars and dots from panels (a), (d) and (e) represent the average of three independent measurements with standard deviations shown as error bars.
To test for the desired activity a colorimetric enzyme assay was chosen and the substrate sulfobutanoyl-p-nitroanilide was synthesized for this purpose. Hydrolysis of this colorless substrate by a GGT variant into sulfobutanoic acid and the yellow dye 4-nitroaniline can be quantified photometrically at 410 nm. For that, cytoplasmic GGT variants containing an N-terminal 6×His-tag were first expressed from E. coli (EcGGT ΔN24) and Pseudomonas nitroreducens (PnGGT ΔN24), as well as EcGGT ΔN24 D433N and the corresponding mutant variant PnGGT ΔN24 D405N. […]

[12] = biological target: T5, PnGGT ΔN24 D405N; assay: Kinetic measurements with purified PnGGT ΔN24 D405N; assay type: biochemical; conditions: purified enzyme, 50 mM Tris-HCl (pH 9.0)
Description: as §5, §6

Row | Compound | growth with compound as leucine source ([1]; expressing EcGGT ΔN24 D433N) | growth with compound as leucine source ([1]; expressing PnGGT ΔN24 D405N) | growth with compound as leucine source ([1]; pACT3 empty vector control) | growth with compound as sole leucine source [2] | K value relative to K value with sulfobutanoyl-p-nitroanilide [3] | improvement of Vmax over PnGGT* [4] [fold] | increase in Vmax in comparison to PnGGT* [5] [%] | reduction in KM in comparison to PnGGT* [5] [%] | growth with compound as sole sulfur source [6] | hydrolysis of substrate [7] | Km [8] [mM] | Vmax [8] [µmol/min/mg] | kcat [8] [s⁻¹] | hydrolysis of substrate [9] | hydrolysis of substrate [10] | reactivity of PnGGT* to substrate [11] | Km [12] [mM] | Vmax [12] [µmol/min/mg] | kcat [12] [s⁻¹]
1 | CC(C)C[C@H](NC(=O)CCCS(=O)(=O)O)C(=O)O [sulfobutanoyl-L-leucine] | slower growth | grows best | weak growth | only grew when cells were synthesizing PnGGT* | approximately three times higher | 1.55 | 27 | 46 | comparable to growth on other sulfonates; also recorded: comparable efficiencies | – | – | – | – | – | – | – | – | – | –
2 | N[C@@H](CCC(=O)Nc1ccc([N+](=O)[O-])c(C(=O)O)c1)C(=O)O [γ-Glu-p-nitroanilide, L-glutamic acid γ-(3-carboxy-4-nitroanilide), reference compound] | – | – | – | – | – | – | – | – | – | able to hydrolyze | 0.105 | 34.94 ± 0.47 | 34.5 | still had detectable activity | able to hydrolyze | no longer possesses significant reactivity | 6.5 | 1.79 ± 0.61 | 1.8
